Laboratory results published in patent US5191079A, “Quinolinecarboxylic acid derivatives” (priority 1990, dated 1993).
In brackets after ≈: the same amount, converted by molar mass. Where two headings read alike, the source gives them in different places.

How the values were obtained:
Type in all cases: cell-based
[1] = tested on: Acinetobacter calcoaceticus Ac 54; assay: MIC, Experiment 1; settings: AC54, A. calcoaceticus Ac 54, Gram -, read-out: Min. inhib. concentr. (MIC)
Procedure, shortened: (§1)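 Stocks: 5000 μg/ml in DMSO or sterile distilled water; standard: 1000 μg/ml after water dilution. Method: Japan Society of Chemotherapy.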

[2] = tested on: Bacillus subtilis ATCC 6633; assay: MIC, Experiment 1; settings: ATCC6633, B. subtilis ATCC 6633, Gram +, read-out: Min. inhib. concentr. (MIC)
Procedure, shortened: (§2)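 Stock solutions (5000 μg/ml, in DMSO or water) were diluted to 1000 μg/ml working standards. MICs were measured per the Japan Society of Chemotherapy procedure, with media matched to each organism: blood-supplemented heart infusion agar for S. pneumoniae and sensitivity test agar for the remaining strains.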

[3] = tested on: Enterobacter cloacae 963; assay: MIC, Experiment 1; settings: E. cloacae 963, Gram -, read-out: Min. inhib. concentr. (MIC)
Procedure, shortened: as §1

[4] = tested on: Klebsiella pneumoniae PCI-602; assay: MIC, Experiment 1; settings: PCI602, K. pneumoniae PCI-602, Gram -, read-out: Min. inhib. concentr. (MIC)
Procedure, shortened: as §1

[5] = tested on: Micrococcus luteus ATCC 9341; assay: MIC, Experiment 1; settings: ATCC9341, M. luteus ATCC 9341, Gram +, read-out: Min. inhib. concentr. (MIC)
Procedure, shortened: as §1

[6] = tested on: Proteus mirabilis IFO 3849; assay: MIC, Experiment 1; settings: IFO3849, P. mirabilis IFO 3849, Gram -, read-out: Min. inhib. concentr. (MIC)
Procedure, shortened: as §1

[7] = tested on: Pseudomonas aeruginosa NCTC 10490; assay: MIC, Experiment 1; settings: NCTC10490, P. aeruginosa NCTC 10490, Gram -, read-out: Min. inhib. concentr. (MIC)
Procedure, shortened: as §1

[8] = tested on: Staphylococcus aureus ATCC 9144; assay: MIC, Experiment 1; settings: ATCC9144, S. aureus ATCC 9144, Gram +, read-out: Min. inhib. concentr. (MIC)
Procedure, shortened: as §2

[9] = tested on: Staphylococcus aureus Cowan I (IID 975); assay: MIC, Experiment 1; settings: IID975, S. aureus Cowan I (IID 975), Gram +, read-out: Min. inhib. concentr. (MIC)
Procedure, shortened: as §2

[10] = tested on: Staphylococcus aureus FDA 209P JC-1; assay: MIC, Experiment 1; settings: FDA209P, S. aureus FDA 209P JC-1, Gram +, read-out: Min. inhib. concentr. (MIC)
Procedure, shortened: as §2

[11] = tested on: Staphylococcus aureus FDA 243; assay: MIC, Experiment 1; settings: FDA243, S. aureus FDA 243, Gram +, read-out: Min. inhib. concentr. (MIC)
Procedure, shortened: as §2

[12] = tested on: Staphylococcus aureus MS-353; assay: MIC, Experiment 1; settings: MS353, S. aureus MS-353, Gram +, read-out: Min. inhib. concentr. (MIC)
Procedure, shortened: as §2

[13] = tested on: Staphylococcus aureus Terajima (IID 670); assay: MIC, Experiment 1; settings: IID670, S. aureus Terajima (IID 670), Gram +, read-out: Min. inhib. concentr. (MIC)
Procedure, shortened: as §2

[14] = tested on: Streptococcus pneumoniae IID 552; assay: MIC, Experiment 1; settings: IID552, S. pneumoniae IID 552, Gram +, agar with 5% defibrinated horse blood, read-out: Min. inhib. concentr. (MIC)
Procedure, shortened: as §2

[15] = tested on: Streptococcus pneumoniae IID 554; assay: MIC, Experiment 1; settings: IID554, S. pneumoniae IID 554, Gram +, agar with 5% defibrinated horse blood, read-out: Min. inhib. concentr. (MIC)
Procedure, shortened: as §2

[16] = tested on: Streptococcus pyogenes Cook; assay: MIC, Experiment 1; settings: S. pyogenes Cook, Gram +, agar with 5% defibrinated horse blood, read-out: Min. inhib. concentr. (MIC)
Procedure, shortened: (§3)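 Minimum inhibitory concentrations come from the Japan Society of Chemotherapy procedure. For streptococci, plates were heart infusion agar with 5% defibrinated horse blood after brain heart infusion broth preculture. Non-streptococcal strains were grown in sensitivity test broth and plated on sensitivity test agar.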

[17] = tested on: Streptococcus pyogenes Su; assay: MIC, Experiment 1; settings: S. pyogenes Su, Gram +, agar with 5% defibrinated horse blood, read-out: Min. inhib. concentr. (MIC)
Procedure, shortened: as §3

[18] = tested on: Streptococcus pyogenes Sv; assay: MIC, Experiment 1; settings: S. pyogenes Sv, Gram +, agar with 5% defibrinated horse blood, read-out: Min. inhib. concentr. (MIC)
Procedure, shortened: as §3

[19] = tested on: clinically isolated Enterococcus faecalis; assay: In vitro antibacterial activity against clinical isolates, Experiment 2; settings: for MIC50: 50% of strains, read-out: MIC50
Procedure, shortened: (§4)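 Read-out is MIC on sensitivity test agar. Organisms are grown beforehand in sensitivity test broth, and each compound is supplied from a 1000 μg/ml standard solution diluted in sterilized distilled water.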

[20] = tested on: clinically isolated Enterococcus faecium; assay: as above
Procedure, shortened: as §4

[21] = tested on: clinically isolated Staphylococcus aureus; assay: as above; settings: for MIC50: 50% of strains, read-out: MIC50
Procedure, shortened: as §4

[22] = tested on: clinically isolated Staphylococcus epidermidis; assay: as above; settings: Staphylococcus epidermidis, 25 clinical strains S. epidermidis; for MIC50: 50% of strains, read-out: MIC50; for MIC90: 90% of strains, read-out: MIC90
Procedure, shortened: as §4

[23] = 25 clinical strains E. faecalis
[24] = 25 clinical strains S. aureus incl. 16 methicillin resistant

For `COCC1CN(c2c(F)cc3c(=O)c(C(=O)O)c4scc5n4c3c2N(C)C5)CCO1` (stereo not drawn) [Compound (E), 9,1-(Methylimino)methano-7-fluoro-8-(2-methoxymethylmorpholino)-5-oxo-5H-thiazolo[3,2-a]quinoline-4-carboxylic acid], the MIC [1] was 0.013 µg/mL (≈ 0.03 µM), the MIC [2] was at most 0.006 µg/mL and the MIC [3] was 0.78 µg/mL (≈ 1.8 µM). For the same molecule, the MIC [4] was 0.025 µg/mL (≈ 0.0577 µM), the MIC [5] was 0.1 µg/mL (≈ 0.231 µM) and the MIC [6] was 0.78 µg/mL (≈ 1.8 µM). The MIC [7] was 1.56 µg/mL (≈ 3.6 µM), the MIC [8] was 0.013 µg/mL (≈ 0.03 µM) and the MIC [9] was at most 0.006 µg/mL. For the same molecule, the MIC [10] was 0.025 µg/mL (≈ 0.0577 µM), the MIC [11] was at most 0.006 µg/mL and the MIC [12] was 0.013 µg/mL (≈ 0.03 µM). It also gave an MIC [13] of 0.025 µg/mL (≈ 0.0577 µM), an MIC [14] of 0.05 µg/mL (≈ 0.115 µM) and an MIC [15] of 0.05 µg/mL (≈ 0.115 µM). It also gave an MIC [16] of 0.05 µg/mL (≈ 0.115 µM), an MIC [17] of 0.05 µg/mL (≈ 0.115 µM) and an MIC [18] of 0.05 µg/mL (≈ 0.115 µM). For the same molecule, the MIC90 [19] was 6.25 µg/mL (≈ 14.4 µM), the MIC [19, 23] was 0.1 to 6.25 µg/mL (≈ 0.231 to 14.4 µM) and the MIC50 [19, 23] was 0.2 µg/mL (≈ 0.461 µM). For the same molecule, the MIC50 [20] was 3.13 µg/mL (≈ 7.22 µM), the MIC90 [20] was 6.25 µg/mL (≈ 14.4 µM) and the MIC ([20]; 25 clinical strains E. faecium) was 0.1 to 12.5 µg/mL (≈ 0.231 to 28.8 µM). The MIC90 [21] was 0.78 µg/mL (≈ 1.8 µM), the MIC [21, 24] was 0.006 to 0.78 µg/mL (≈ 0.0138 to 1.8 µM) and the MIC50 [21, 24] was 0.013 µg/mL (≈ 0.03 µM). For the same molecule, the MIC [22] was 0.006 to 0.39 µg/mL (≈ 0.0138 to 0.9 µM), the MIC50 [22] was 0.05 µg/mL (≈ 0.115 µM) and the MIC90 [22] was 0.39 µg/mL (≈ 0.9 µM).

Work on `CN1Cc2csc3c(C(=O)O)c(=O)c4cc(F)c(N5CCC(O)CC5)c1c4n23` [Compound (L), 9,1-(Methylimino)methano-7-fluoro-8-(4-hydroxypiperidino)-5-oxo-5H-thiazolo[3,2-a]quinoline-4-carboxylic acid] yielded an MIC [1] of at most 0.006 µg/mL, an MIC [2] of at most 0.006 µg/mL and an MIC [3] of 0.2 µg/mL (≈ 0.496 µM). It also gave an MIC [4] of at most 0.006 µg/mL, an MIC [5] of 0.1 µg/mL (≈ 0.248 µM) and an MIC [6] of 0.2 µg/mL (≈ 0.496 µM). It also gave an MIC [7] of 0.39 µg/mL (≈ 0.967 µM), an MIC [8] of at most 0.006 µg/mL and an MIC [9] of at most 0.006 µg/mL. For the same molecule, the MIC [10] was 0.013 µg/mL (≈ 0.0322 µM), the MIC [11] was at most 0.006 µg/mL and the MIC [12] was 0.013 µg/mL (≈ 0.0322 µM). It also gave an MIC [13] of 0.013 µg/mL (≈ 0.0322 µM), an MIC [14] of 0.013 µg/mL (≈ 0.0322 µM) and an MIC [15] of 0.05 µg/mL (≈ 0.124 µM). The MIC [16] was 0.025 µg/mL (≈ 0.062 µM), the MIC [17] was 0.025 µg/mL (≈ 0.062 µM) and the MIC [18] was 0.025 µg/mL (≈ 0.062 µM). For the same molecule, the MIC [19, 23] was 0.05 to 1.56 µg/mL (≈ 0.124 to 3.87 µM), the MIC50 [19, 23] was 0.05 µg/mL (≈ 0.124 µM) and the MIC90 ([19]; 25 clinical strains E. faecalis, 90% of strains, read-out: MIC90) was 1.56 µg/mL (≈ 3.87 µM). For the same molecule, the MIC50 [20] was 0.39 µg/mL (≈ 0.967 µM), the MIC ([20]; 25 clinical strains E. faecium) was 0.05 to 6.25 µg/mL (≈ 0.124 to 15.5 µM) and the MIC90 ([20]; 25 clinical strains E. faecium, 90% of strains, read-out: MIC90) was 3.13 µg/mL (≈ 7.76 µM). The MIC [21, 24] was 0.006 to 0.39 µg/mL (≈ 0.0149 to 0.967 µM), the MIC50 [21, 24] was at most 0.006 µg/mL and the MIC90 ([21]; 25 clinical strains S. aureus incl. 16 methicillin resistant, 90% of strains, read-out: MIC90) was 0.39 µg/mL (≈ 0.967 µM). The MIC [22] was 0.006 to 0.39 µg/mL (≈ 0.0149 to 0.967 µM), the MIC50 [22] was 0.013 µg/mL (≈ 0.0322 µM) and the MIC90 [22] was 0.39 µg/mL (≈ 0.967 µM).
